Experimental data: patent publication US20160038505A1, “METHODS AND COMPOSITIONS FOR TREATING IMPULSE CONTROL DISORDER, ANXIETY-RELATED DISORDERS, VIOLENCE AND/OR ANGER, OR REGULATING FOOD INTAKE” (priority 2014, published 2016)

Tested on: cynomolgus monkey
Experiment: Single dose toxicity in cynomolgus monkeys
Type: in vivo
Details: oral gavage
Procedure: The objective of the study was to determine the toxicity and toxicokinetic profile of noribogaine following oral (gavage) administration to the cynomolgus monkey. Each dose was followed by a 7 day washout period. Dosing was staggered by 45 minutes. On study day 15, one animal was administered 80 mg/kg and the other animal was administered 160 mg/kg. The test article was administered as follows in Table 1:
Parameters monitored on the study included: mortality, clinical signs and body weights. Blood samples were collected for TK evaluation. […] The single dose maximum tolerated dose (MTD) was determined to be greater than 160 mg/kg based on the parameters monitored during the study.

CC[C@H]1CC2C[C@H]3c4[nH]c5ccc(O)cc5c4CCN(C2)C13 [noribogaine]
single dose maximum tolerated dose (MTD): greater than 160 mg/kg
mortality and clinical signs (doses up to and including 160 mg/kg): No mortality or treatment related clinical signs
